What is called Ki is a dissociation constant, usually derived from enzyme kinetics or from competition with a known ligand.

This is an account of results in ChEMBL document CHEMBL5042507, “One-Pot Procedure for the Synthesis of Asymmetric Substituted Ureido Benzene Sulfonamides as Effective Inhibitors of Carbonic Anhydrase Enzymes” (J Med Chem, 2022).

Among the targets are Carbonic anhydrase 9 (Homo sapiens, UniProt Q16790); Carbonic anhydrase 12 (Homo sapiens, UniProt O43570); Carbonic anhydrase 1 (Homo sapiens, UniProt P00915).
In assay [1] the test system is Oryctolagus cuniculus. Kind of assay: Antiglaucoma activity in New Zealand albino rabbit assessed as reduction in intraocular pressure administered topically as eye drops measured after 4 hrs by pneumotonometer-analysis. Type of assay: functional.
Assay [2] deals with Oryctolagus cuniculus. Description: Antiglaucoma activity in New Zealand albino rabbit assessed as reduction in carbomer-induced intraocular pressure administered topically as eye drops measured at 60 to 120 mins post administration by pneumotonometer-analysis. It counts as functional. The note with it: time 60-120 min.
The subject of assay [3] is Oryctolagus cuniculus. Kind of assay: Antiglaucoma activity in New Zealand albino rabbit assessed as reduction in carbomer-induced intraocular pressure administered topically as eye drops measured at 240 mins post-drug administration by pneumotonometer-analysis. The note with it: 4 h. It counts as functional.
In assay [4] the test system is Oryctolagus cuniculus. Description: Antiglaucoma activity in New Zealand albino rabbit assessed as reduction in carbomer-induced intraocular pressure administered topically as eye drops measured at 60 mins post-drug administration by pneumotonometer-analysis. The note with it: 1 h. Type of assay: functional.

Activity calls are given as the source filed them. The calls are words filed in the database; no cut-off is given here.

Chain of Carbonic anhydrase 12 (O43570 whole entry): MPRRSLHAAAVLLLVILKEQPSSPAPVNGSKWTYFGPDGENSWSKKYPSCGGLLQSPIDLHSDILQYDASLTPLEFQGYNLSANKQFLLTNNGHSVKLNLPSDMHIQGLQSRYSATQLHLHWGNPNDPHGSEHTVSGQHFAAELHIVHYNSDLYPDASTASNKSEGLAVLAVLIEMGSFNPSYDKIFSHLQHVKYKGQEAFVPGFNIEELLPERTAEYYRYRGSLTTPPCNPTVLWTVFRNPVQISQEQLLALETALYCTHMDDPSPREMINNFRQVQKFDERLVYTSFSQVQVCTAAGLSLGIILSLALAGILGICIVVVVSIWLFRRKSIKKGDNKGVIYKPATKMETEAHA
Chain of Carbonic anhydrase 1 (P00915 whole entry): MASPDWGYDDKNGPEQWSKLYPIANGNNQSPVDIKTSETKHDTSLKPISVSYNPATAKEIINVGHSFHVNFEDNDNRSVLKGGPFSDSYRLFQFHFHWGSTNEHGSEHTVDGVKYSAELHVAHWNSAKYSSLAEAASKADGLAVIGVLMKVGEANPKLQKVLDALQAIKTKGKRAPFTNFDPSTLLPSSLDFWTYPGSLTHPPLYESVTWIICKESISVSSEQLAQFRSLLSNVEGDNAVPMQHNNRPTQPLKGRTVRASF
Description for Carbonic anhydrase 12: Inhibition of human CA12 preincubated for 15 mins by phenol red dye based stopped flow CO2 hydration assay
Description for Carbonic anhydrase 9: Inhibition of human CA9 preincubated for 15 mins by phenol red dye based stopped flow CO2 hydration assay

Regarding `COC(=O)C(CC(C)C)NC(=O)Nc1cccc(S(N)(=O)=O)c1` (stereo not given), the Ki worked out at 839 nM at Carbonic anhydrase 9, 589 nM at Carbonic anhydrase 12 and 5280 nM at Carbonic anhydrase 1.

As to `COC(=O)C(Cc1ccccc1)NC(=O)Nc1cccc(S(N)(=O)=O)c1` (stereo not given), the inhibitory constant (Ki) on Carbonic anhydrase 9 came to 943 nM; at Carbonic anhydrase 12, 275 nM; at Carbonic anhydrase 1 it was 809 nM. Further, the outcome in the assay with Oryctolagus cuniculus [1] was Active. Further, in the assay with Oryctolagus cuniculus [2], the Activity is reported as 16 mmHg.

On to `CN(Cc1ccccc1)C(=O)Nc1cccc(S(N)(=O)=O)c1`, for which, on Carbonic anhydrase 9, affinity was put at a Ki of 1440 nM. Further, in the assay on Oryctolagus cuniculus [1], the result was Active. The Activity in the assay on Oryctolagus cuniculus [2] is 11 mmHg.

In the case of `NS(=O)(=O)c1ccc(NC(=O)NCC(=O)NCC(=O)O)cc1`, the Ki was 1570 nM on Carbonic anhydrase 9, 426 nM on Carbonic anhydrase 12 and 7570 nM on Carbonic anhydrase 1. Besides, the result in the assay on Oryctolagus cuniculus [1] and with Oryctolagus cuniculus [2] was Active. The Activity in the assay with Oryctolagus cuniculus [3] worked out at 19 mmHg.

As for `CC(C)NC(=O)Nc1ccc(S(N)(=O)=O)cc1`, the Ki is 640 nM at Carbonic anhydrase 9, 593 nM on Carbonic anhydrase 12 and 438 nM at Carbonic anhydrase 1.

`COC(=O)C(CC(C)C)NC(=O)Nc1ccc(S(N)(=O)=O)cc1` (stereo not given): the Ki on Carbonic anhydrase 9 came out at 937 nM; at Carbonic anhydrase 12, 586 nM; at Carbonic anhydrase 1, 226 nM.

As for `CCC(C)NC(=O)Nc1ccc(S(N)(=O)=O)cc1` (stereo not given), the Ki turned out to be 507 nM at Carbonic anhydrase 9, 637 nM on Carbonic anhydrase 12 and 669 nM at Carbonic anhydrase 1.

`COC(=O)[C@H](Cc1ccccc1)NC(=O)Nc1ccc(S(N)(=O)=O)cc1`: the Ki at Carbonic anhydrase 9 is 126 nM; at Carbonic anhydrase 12 it was 42.6 nM; on Carbonic anhydrase 1, 62.3 nM. Moreover, the Activity in the assay with Oryctolagus cuniculus [4] stood at 36 mmHg; in the assay with Oryctolagus cuniculus [1] it was 27 mmHg.

Take `COC(=O)CNC(=O)Nc1cccc(S(N)(=O)=O)c1`: the results for the Ki on Carbonic anhydrase 9 and at Carbonic anhydrase 1 were 825 nM and 6070 nM, respectively.

Regarding `CC(C)CN(CC(C)C)C(=O)Nc1cccc(S(N)(=O)=O)c1`, the inhibitory constant (Ki) at Carbonic anhydrase 9 came to 1790 nM.

`COC(=O)CCC(NC(=O)Nc1ccc(S(N)(=O)=O)cc1)C(=O)OC` (stereo not given): the figures for the Ki on Carbonic anhydrase 9, on Carbonic anhydrase 12 and at Carbonic anhydrase 1 were 596 nM, 726 nM and 62 nM, respectively.

With `NS(=O)(=O)c1cccc(NC(=O)Nc2cccc(C(F)(F)F)c2)c1`, the Ki at Carbonic anhydrase 9 was 1600 nM; at Carbonic anhydrase 12 it was 490 nM; on Carbonic anhydrase 1 it was 2060 nM.

Take `COC(=O)CC(NC(=O)Nc1cccc(S(N)(=O)=O)c1)C(=O)OC` (stereo not given): the Ki amounted to 860 nM on Carbonic anhydrase 9 and 8380 nM on Carbonic anhydrase 1.

Turning to `CN(CCc1ccccc1)C(=O)Nc1cccc(S(N)(=O)=O)c1`, on Carbonic anhydrase 9, the Ki stood at 1180 nM.

In the case of `CCN(CC)C(=O)Nc1cccc(S(N)(=O)=O)c1`, the Ki was 1730 nM on Carbonic anhydrase 9, 375 nM on Carbonic anhydrase 12 and 2880 nM at Carbonic anhydrase 1.

With `CC(C)NC(=O)Nc1cccc(S(N)(=O)=O)c1`, the Ki came out at 2170 nM at Carbonic anhydrase 9 and 612 nM at Carbonic anhydrase 12.

In the case of `NS(=O)(=O)c1cccc(NC(=O)Nc2ccccc2)c1`, the Ki at Carbonic anhydrase 9 stood at 1800 nM; on Carbonic anhydrase 12 it was 356 nM; at Carbonic anhydrase 1, 449 nM.

Regarding `COC(=O)CNC(=O)Nc1ccc(S(N)(=O)=O)cc1`, at Carbonic anhydrase 9, the Ki came to 1920 nM.

For `CC(C)N(C(=O)Nc1cccc(S(N)(=O)=O)c1)C(C)C`, on Carbonic anhydrase 9, the affinity, expressed as Ki, was 2090 nM.

For `CCCN(CCC)C(=O)Nc1cccc(S(N)(=O)=O)c1`, the Ki on Carbonic anhydrase 9 was 2190 nM.

With `COC(=O)CCCNC(=O)Nc1cccc(S(N)(=O)=O)c1`, the Ki at Carbonic anhydrase 9 came to 746 nM; at Carbonic anhydrase 12, 494 nM; on Carbonic anhydrase 1, 8280 nM.

As for `COC(=O)CNC(=O)CNC(=O)Nc1cccc(S(N)(=O)=O)c1`, the inhibition constant (Ki) on Carbonic anhydrase 9 is 691 nM; at Carbonic anhydrase 12, 344 nM; on Carbonic anhydrase 1, 7190 nM.

Consider `NS(=O)(=O)c1cccc(NC(=O)NCCc2ccccc2)c1`, for which the Ki was found to be 1330 nM on Carbonic anhydrase 9, 487 nM at Carbonic anhydrase 12 and 296 nM at Carbonic anhydrase 1.

On Carbonic anhydrase 9, `CCCCCCN(CCCCCC)C(=O)Nc1cccc(S(N)(=O)=O)c1` displayed a Ki of 2110 nM.

In the case of `COC(=O)C(CCSC)NC(=O)Nc1cccc(S(N)(=O)=O)c1` (stereo not given), the Ki on Carbonic anhydrase 9 came to 1380 nM; at Carbonic anhydrase 12 it was 426 nM; at Carbonic anhydrase 1 it was 1730 nM.

In the case of `CCC(C)NC(=O)Nc1cccc(S(N)(=O)=O)c1` (stereo not given), the values for the Ki at Carbonic anhydrase 9, on Carbonic anhydrase 12 and at Carbonic anhydrase 1 were 2120 nM, 600 nM and 69.9 nM, respectively.

With `CN(C)C(=O)Nc1ccc(S(N)(=O)=O)cc1`, the Ki at Carbonic anhydrase 9 was 1400 nM; at Carbonic anhydrase 12, 705 nM; at Carbonic anhydrase 1, 483 nM.

Turning to `NS(=O)(=O)c1cccc(NC(=O)N2CCCCC2)c1`, the Ki on Carbonic anhydrase 9 was determined as 541 nM; at Carbonic anhydrase 12 it was 278 nM; on Carbonic anhydrase 1 it was 178 nM.

For `NS(=O)(=O)c1cccc(NC(=O)Nc2ccccc2F)c1`, the Ki stood at 1480 nM on Carbonic anhydrase 9, 512 nM at Carbonic anhydrase 12 and 737 nM on Carbonic anhydrase 1.

Turning to `CCN[C@H]1C[C@H](C)S(=O)(=O)c2sc(S(N)(=O)=O)cc21` [DORZOLAMIDE], the Activity in the assay with Oryctolagus cuniculus [1] stood at 24 mmHg.
